Tests used:
rats [1] = experiment: Repeated inhalation of MALP-2 by mask in rats; assay type: in vivo, rat; details: 30 μg inhaled by mask, six occasions at one-week intervals
Protocol: 2) With the aid of a mask, rats are made to inhale 30 μg doses of MALP-2 on six occasions at one-week intervals.

[2] = intraperitoneal injection of a few μg; cited from earlier work
rats [3] = experiment: Intratracheal instillation of MALP-2 in rats, cells determined by bronchoalveolar lavage (BAL); details: 3 μg instilled into the trachea
Protocol: 1) 3 μg of MALP-2 (an S-(2,3-bisacyloxypropyl)-cysteine peptide) are instilled into the trachea of rats. At various times after treatment, cells from the lung lumen are determined by means of bronchoalveolar lavage (BAL).

MALP-2: macrophage-activating lipopeptide (an S-(2,3-bisacyloxypropyl)-cysteine peptide) isolated from Mycoplasma fermentans
clinical condition of the animals (rats [1]): clinically not noteworthy
lymphatic tissue in the bronchial mucosa (rats [1]): increase in the lymphatic tissue
leukocyte infiltration [2]: has brought about leukocyte infiltration
adverse effect on the animals (rats [3]): not detectable
duration of the increase in leukocyte number (rats [3]): lasts for a few days
food consumption, bodyweight, activity and behaviour (rats [3]): not noteworthy
number of leukocytes in the respiratory tracts and the alveolar space (BAL) (rats [3]; after a few hours): increase in the number of leukocytes

Reference: patent publication US20040249133A1, “Use of lipopeptides or lipoproteins for treating lung infections and lung tumours” (priority 2000, published 2004)
